From publication PMC10329608, “Investigation of the structure-activity relationship at the N-terminal part of minigastrin analogs” (EJNMMI Research, 2023)
Read-outs that look alike come from different tables or passages of the source. Non-standard residues stand in square brackets, D forms with d. Residues, ends and D or L forms follow the SMILES beside them. *: point of attachment. DOTA = O=C(O)CN1CCN(CC(=O)O)CCN(CC(=O)*)CCN(CC(=O)O)CC1; 1Nal = N[C@@H](Cc1cccc2ccccc12)C(=O)O; NMeNle = CCCC[C@H](NC)C(=O)O; PEG4 = NCCOCCOCCOCCOCCC(=O)O

Tests used:
[1] = assay type: physicochemical; settings: pH 7.4
Protocol: Lipophilicity (depicted as n-octanol-phosphate-buffered saline solution (PBS, pH = 7.4) distribution coefficient, logD7.4) of ^177Lu-labeled minigastrin analogs was evaluated as previously published.

[2] = target: T1, CCK-2R (Rattus norvegicus, UniProt P30553); experiment: Competitive binding (IC50) on AR42J cells against [177Lu]Lu-DOTA-PP-F11N; settings: AR42J cells, 3 h
T1 construct: endogenous in cells; host or cells: AR42J cells
T1 sequence (P30553 1-452): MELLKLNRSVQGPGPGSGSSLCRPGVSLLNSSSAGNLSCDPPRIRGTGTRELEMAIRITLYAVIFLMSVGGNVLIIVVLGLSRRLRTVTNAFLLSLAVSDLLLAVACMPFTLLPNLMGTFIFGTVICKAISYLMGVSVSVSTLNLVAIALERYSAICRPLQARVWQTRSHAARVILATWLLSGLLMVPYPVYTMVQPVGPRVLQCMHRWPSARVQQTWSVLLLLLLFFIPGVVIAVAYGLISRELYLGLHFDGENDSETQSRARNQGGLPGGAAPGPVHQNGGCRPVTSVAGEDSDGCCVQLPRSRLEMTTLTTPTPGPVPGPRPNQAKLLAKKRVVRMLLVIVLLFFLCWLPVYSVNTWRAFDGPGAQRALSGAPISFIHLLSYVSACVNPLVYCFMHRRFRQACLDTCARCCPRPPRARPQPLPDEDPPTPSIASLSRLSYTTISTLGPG
Protocol: IC50 values of all compounds were determined according to a previously published procedure. In brief, competitive binding studies were performed via co-incubation of increasing concentrations of the peptide of interest (10^−10 to 10^–4 M, in triplicate) together with the reference compound [^177Lu]Lu-DOTA-PP-F11N (0.3 pmol/well) on AR42J cells (2 × 10^5 cells per 1 mL/well) at 37 °C for 3 h. Table S1. CCK-2R affinity and lipophilicity data of the compounds evaluated. Affinity data were determined on AR42J cells (2.0 x 10^5 cells/well/mL) and [^177Lu]Lu-DOTA-PP-F11N (0.3 pmol/well) as radiolabeled reference (3 h, 37°C, RPMI 1640, 5 mM L-Gln, 5 mL non-essential amino acids (100x), 10% FCS + 5% BSA (v/v)).

[3] = tested on: A431-CCK-2R tumor; settings: mouse, in vivo, 1 h; cited from earlier work
[4] = [177Lu]Lu-DOTA-PP-F11N as reference, 37 °C, values in text, read-out: IC50 (CCK-2R affinity)

| logD [1] | IC50 ([2]; 2.0 x 10^5 cells/well/mL, [177Lu]Lu-DOTA-PP-F11N 0.3 pmol/well as reference, 37°C, natLu-labeled DOTA peptides, tetrapeptides unlabeled, read-out: IC50) | IC50 [2, 4] | logD7.4 [1] | Compound | activity levels in the tumor [3] | activity uptake in the kidneys [3] |
| --- | --- | --- | --- | --- | --- | --- |
| -2.21 ± 0.07 | 7.64 ± 0.86 nM | 7.6 ± 0.9 nM |  | CCCC[C@@H](C(=O)N[C@@H](CC(=O)O)C(=O)N[C@@H](Cc1cccc2ccccc12)C(N)=O)N(C)C(=O)[C@H](Cc1c[nH]c2ccccc12)NC(=O)CCOCCOCCOCCOCCNC(=O)CN1CCN(CC(=O)O)CCN(CC(=O)O)CCN(CC(=O)O)CC1 [[^nat/177Lu]Lu-DOTA-CCK-64, metal not drawn] ({DOTA-PEG4}-W[NMeNle]D[1Nal]-NH2) |  |  |
|  |  | 5.2 ± 0.8 nM | − 2.21 ± 0.08 | CCCC[C@@H](C(=O)N[C@@H](CC(=O)O)C(=O)N[C@@H](Cc1cccc2ccccc12)C(N)=O)N(C)C(=O)[C@H](Cc1c[nH]c2ccccc12)NC(=O)CNC(=O)[C@H](Cc1ccc(O)cc1)NC(=O)[C@H](C)NC(=O)[C@@H](CCC(=O)O)NC(=O)CN1CCN(CC(=O)O)CCN(CC(=O)O)CCN(CC(=O)O)CC1 [[^natLu]Lu-DOTA-MGS5, DOTA-D-Glu-Ala-Tyr-Gly-Trp-(N-Me)Nle-Asp-1-Nal-NH2, metal not drawn, reference compound] |  |  |
|  |  |  |  | DOTA-D-Glu-Ala-Tyr-Gly-Trp-(N-Me)Nle-Asp-1-Nal-NH2 [[^68 Ga]Ga-DOTA-MGS5] | 23.3 ± 4.7 %ID/g | 5.7 ± 1.4 %ID/g |
